{
  "source": "patent US12465049B2",
  "about": "“Pest control method, and pest control agent composition and pest control agent set” (Nippon Soda Co., Ltd., priority 2019, dated 2025)",
  "test_system": "Tetranychus urticae",
  "assay": "Test for confirming effect on Tetranychus urticae (kidney bean leaves in petri dish, sprinkling; survival numbers of next generation)",
  "type": "in vivo",
  "description": "Test for Confirming Effect on Tetranychus urticae\nTen Tetranychus urticae female imagoes were inoculated on kidney bean leaves placed in each petri dish on the day before chemical solution treatment.\nA flowable agent containing the compound A was diluted with water containing RABIDEN 3S diluted 5000 times to prepare chemical solutions A containing the compound A at twice concentrations described in Table 3, respectively.\nA preparation containing the compound B or a flowable agent containing the compound B was diluted with water containing RABIDEN 3S diluted 5000 times to prepare chemical solutions B containing the compound B at twice concentrations described in Table 3, respectively.\n{Preparations Used in Test Examples and Containing the Compound B}\n• Test numbers a and b: hexythiazox: Nissorun wettable powder (produced by Nippon Soda Co., Ltd.) • Test numbers c and d: abamectin: Agri-Mek (produced by Syngenta Japan K.K.) • Test numbers e and f: fenpyroximate: DANITRON flowable (produced by NIHON NOHYAKU CO., LTD.) • Test numbers g and h: acetamiprid: MOSPILAN water soluble powder (produced by Nippon Soda Co., Ltd.) • Test number i: propargite: Omite wettable powder (produced by NIHON NOHYAKU CO., LTD.)\nA mixed solution obtained by mixing the chemical solution A and the chemical solution B in an equivalent amount was sprinkled on a petri dish containing kidney bean leaves on which Tetranychus urticae was inoculated at 2 mg per 1 cm^2 with a rotatory sprinkling tower (AB mixture application plot).\nThe chemical solution A and the chemical solution B were twice diluted with the water containing RABIDEN 3S diluted 5000 times to obtain a chemical solution A′ and a chemical solution B′, respectively.\nThe chemical solution A′ was sprinkled on another petri dish containing kidney bean leaves on which Tetranychus urticae was inoculated at 2 mg per 1 cm^2 with a rotatory sprinkling tower (A single application plot). The Chemical solution B′ was sprinkled on another petri dish containing kidney bean leaves on which Tetranychus urticae was inoculated at 2 mg per 1 cm^2 with a rotatory sprinkling tower (B single application plot).\nThen, the petri dishes on which the chemical solutions were sprinkled were placed in a thermostatic chamber at a temperature of 25° C. and a humidity of 60%. All the imagoes were removed after 3 days elapsed from the sprinkling. Then, the petri dishes from which the imagoes were removed were placed in a thermostatic chamber at a temperature of 25° C. and a humidity of 60%. When 10 days elapsed from the sprinkling, the survival numbers of the next generation were investigated, and the effectivenesses were calculated. Effectiveness (%)=(Cn−Tn)/Cn×100 • Cn: Survival numbers of next generation in non-treatment plot after 10 days • Tn: Survival numbers of next generation in treatment plot after 10 days\nTo show the degree of a synergistic effect, the “effectiveness expectation” was calculated based on the Colby method. When the effectiveness is higher than the “effectiveness expectation”, it is determined that there is a synergistic effect. Expectation of effectiveness (%)(E)=X+Y−XY/100 • X: measurement of effectiveness in B single application plot (%) • Y: measurement of effectiveness in A single application plot (%)",
  "data": [
    {"compound": "C#CCOS(=O)OC1CCCCC1Oc1ccc(C(C)(C)C)cc1", "note": "(centres unmarked) [propargite]", "values": [
      {"measurement": "Effectiveness Found", "setting": "propargite 5 ppm, B single application plot, 10 days after sprinkling", "value": 24, "unit": "%"}
    ]},
    {"compound": "abamectin", "values": [
      {"measurement": "Effectiveness Found", "setting": "abamectin 0.07 ppm, B single application plot, 10 days after sprinkling", "value": 42, "unit": "%"}
    ]},
    {"compound": "CCN(Oc1cc(Br)cc(C(F)(F)F)c1)C(=O)NC(C)(C)C(=O)NCC(F)(F)F", "note": "[Compound (II), 2-{3-[3-bromo-5-(trifluoromethyl)phenoxy]-3-ethylureido}-2-methyl-N-(2,2,2-trifluoroethyl)propanamide]", "values": [
      {"measurement": "Effectiveness Found", "setting": "Compound (II) 2.3 ppm, A single application plot, next generation 10 days after sprinkling", "value": 52, "unit": "%"},
      {"measurement": "Effectiveness Found", "setting": "Compound (II) 4.7 ppm, A single application plot, next generation 10 days after sprinkling", "value": 74, "unit": "%"}
    ]},
    {"compound": "CCCOc1cc(C(F)(F)F)ccc1O[C@H]1C[C@H]2CCC[C@@H](C1)N2Oc1ccc(C(F)(F)F)cn1", "note": "[acynonapyr]", "values": [
      {"measurement": "Effectiveness Found", "setting": "acynonapyr 0.4 ppm, B single application plot, 10 days after sprinkling", "value": 58, "unit": "%"}
    ]},
    {"compound": "C[C@@H]1[C@@H](c2ccc(Cl)cc2)SC(=O)N1C(=O)NC1CCCCC1", "note": "[hexythiazox]", "values": [
      {"measurement": "Effectiveness Found", "setting": "hexythiazox 1 ppm, B single application plot, 10 days after sprinkling", "value": 58, "unit": "%"}
    ]},
    {"compound": "Cc1nn(C)c(Oc2ccccc2)c1C=NOCc1ccc(C(=O)OC(C)(C)C)cc1", "note": "[fenpyroximate]", "values": [
      {"measurement": "Effectiveness Found", "setting": "fenpyroximate 2.5 ppm, B single application plot, 10 days after sprinkling", "value": 67, "unit": "%"}
    ]},
    {"compound": "C/C(=N\\C#N)N(C)Cc1ccc(Cl)nc1", "note": "[acetamiprid]", "values": [
      {"measurement": "Effectiveness Found", "setting": "acetamiprid 100 ppm, B single application plot, 10 days after sprinkling", "value": 5, "unit": "%"}
    ]}
  ]
}
